Test results taken from ChEMBL document CHEMBL3865816, “Design, synthesis and biological evaluation of novel azaspiro analogs of linezolid as antibacterial and antitubercular agents” (Eur J Med Chem, 2016).
Converted amounts (≈) assume the structure as drawn.

Legend:
Type in all cases: functional
[1] = test system: Mycobacterium tuberculosis variant bovis; assay: Antitubercular activity against dormant stage Mycobacterium bovis BCG ATCC 35734 measured after 12 days by nitrate reductase assay; conditions: ATCC 35734, 288 h
[2] = test system: Mycobacterium tuberculosis variant bovis; assay: Antitubercular activity against dormant stage Mycobacterium bovis BCG ATCC 35734 at 30 ug/ml measured after 12 days by nitrate reductase assay; conditions: ATCC 35734, 288 h
[3] = test system: Mycobacterium tuberculosis variant bovis; assay: Antitubercular activity against dormant stage Mycobacterium bovis BCG ATCC 35734 at 10 ug/ml measured after 12 days by nitrate reductase assay; conditions: ATCC 35734, 288 h
[4] = test system: Mycobacterium tuberculosis variant bovis; assay: Antitubercular activity against dormant stage Mycobacterium bovis BCG ATCC 35734 at 3 ug/ml measured after 12 days by nitrate reductase assay; conditions: ATCC 35734, 288 h
[5] = test system: Mycobacterium tuberculosis variant bovis; assay: Antitubercular activity against active stage Mycobacterium bovis BCG ATCC 35734 measured after 8 days by nitrate reductase assay; conditions: ATCC 35734, 192 h

COCC(=O)NC[C@H]1CN(c2ccc(N3CC4(COC4)C3)c(F)c2)C(=O)O1
IC50 [1]: > 100 µg/mL
MIC [1]: > 100 µg/mL
inhibition at 30 µg/mL [2]: 98.6%
inhibition at 10 µg/mL [3]: 97.2%
inhibition at 3 µg/mL [4]: 74.5%

CC(=O)OCC(=O)NC[C@H]1CN(c2ccc(N3CC4(COC4)C3)c(F)c2)C(=O)O1
IC50 [1]: 3.05 µg/mL (≈ 7.49 µM)
MIC [1]: 5.77 µg/mL (≈ 14.2 µM)
inhibition at 30 µg/mL [2]: 99.4%
inhibition at 10 µg/mL [3]: 99.6%
IC50 [5]: 3.35 µg/mL (≈ 8.22 µM)
MIC [5]: 6.32 µg/mL (≈ 15.5 µM)
inhibition at 3 µg/mL [4]: 99.2%

O=C1O[C@@H](CNS(=O)(=O)c2cc([N+](=O)[O-])ccc2Cl)CN1c1ccc(N2CC3(COC3)C2)c(F)c1
IC50 [1]: > 100 µg/mL
MIC [1]: > 100 µg/mL
inhibition at 30 µg/mL [2]: 15%
inhibition at 10 µg/mL [3]: 11.6%
inhibition at 3 µg/mL [4]: 11.1%

O=C1O[C@@H](CNS(=O)(=O)c2cccc(C(F)(F)F)c2)CN1c1ccc(N2CC3(COC3)C2)c(F)c1
IC50 [1]: > 100 µg/mL
MIC [1]: > 100 µg/mL
inhibition at 30 µg/mL [2]: -5.29%
inhibition at 10 µg/mL [3]: -6.57%
inhibition at 3 µg/mL [4]: -2.23%

COc1ccc(NC(=S)NC[C@H]2CN(c3ccc(N4CC5(COC5)C4)c(F)c3)C(=O)O2)cc1
IC50 [1]: > 100 µg/mL
MIC [1]: > 100 µg/mL
inhibition at 30 µg/mL [2]: 73.2%
inhibition at 10 µg/mL [3]: 63%
inhibition at 3 µg/mL [4]: 18.9%

O=C(NC[C@H]1CN(c2ccc(N3CC4(COC4)C3)c(F)c2)C(=O)O1)c1cccnc1
IC50 [1]: > 100 µg/mL
MIC [1]: > 100 µg/mL
inhibition at 30 µg/mL [2]: 102%
inhibition at 10 µg/mL [3]: 101%
inhibition at 3 µg/mL [4]: 76.2%

O=C1O[C@@H](CNC(=S)Nc2ccc(Cl)cc2)CN1c1ccc(N2CC3(COC3)C2)c(F)c1
IC50 [1]: > 100 µg/mL
MIC [1]: > 100 µg/mL
inhibition at 30 µg/mL [2]: -26.1%
inhibition at 10 µg/mL [3]: -10.1%
inhibition at 3 µg/mL [4]: -1.89%

O=C1O[C@@H](CNC(=S)Nc2cccc(C(F)(F)F)c2)CN1c1ccc(N2CC3(COC3)C2)c(F)c1
IC50 [1]: > 100 µg/mL
MIC [1]: > 100 µg/mL
inhibition at 30 µg/mL [2]: 94.8%
inhibition at 10 µg/mL [3]: 83.9%
inhibition at 3 µg/mL [4]: 29.6%

NC[C@H]1CN(c2ccc(N3CC4(COC4)C3)c(F)c2)C(=O)O1
IC50 [1]: 17.3 µg/mL (≈ 56.4 µM)
MIC [1]: 24.4 µg/mL (≈ 79.2 µM)
inhibition at 30 µg/mL [2]: 89.4%
inhibition at 10 µg/mL [3]: 52%
IC50 [5]: 15.7 µg/mL (≈ 51.2 µM)
MIC [5]: 29.5 µg/mL (≈ 96 µM)
inhibition at 3 µg/mL [4]: -0.29%

O=C(NC[C@H]1CN(c2ccc(N3CC4(COC4)C3)c(F)c2)C(=O)O1)c1ccno1
IC50 [1]: 4.83 µg/mL (≈ 12 µM)
MIC [1]: 10.1 µg/mL (≈ 25.2 µM)
inhibition at 30 µg/mL [2]: 89%
inhibition at 10 µg/mL [3]: 86.1%
IC50 [5]: 4.11 µg/mL (≈ 10.2 µM)
MIC [5]: 9.82 µg/mL (≈ 24.4 µM)
inhibition at 3 µg/mL [4]: 66.9%

O=C1O[C@@H](CNC(=S)Nc2ccc([N+](=O)[O-])cc2)CN1c1ccc(N2CC3(COC3)C2)c(F)c1
IC50 [1]: > 100 µg/mL
MIC [1]: > 100 µg/mL
inhibition at 30 µg/mL [2]: -6.89%
inhibition at 10 µg/mL [3]: -15.8%
inhibition at 3 µg/mL [4]: 39.9%

O=C1OC2(CCNC2)CN1c1ccc(N2CCOCC2)c(F)c1 (centres undefined)
IC50 [1]: > 100 µg/mL
MIC [1]: > 100 µg/mL
inhibition at 30 µg/mL [2]: -7.3%
inhibition at 10 µg/mL [3]: -16.8%
inhibition at 3 µg/mL [4]: -3.11%

O=C(NC[C@H]1CN(c2ccc(N3CC4(COC4)C3)c(F)c2)C(=O)O1)c1ccc(C(F)(F)F)cc1
IC50 [1]: > 100 µg/mL
MIC [1]: > 100 µg/mL
inhibition at 30 µg/mL [2]: 73.1%
inhibition at 10 µg/mL [3]: 8.62%
inhibition at 3 µg/mL [4]: 65%

OC1(CNc2ccc(N3CCOCC3)c(F)c2)CCN(Cc2ccccc2)C1 (centres undefined)
IC50 [1]: > 100 µg/mL
MIC [1]: > 100 µg/mL
inhibition at 30 µg/mL [2]: -1.83%
inhibition at 10 µg/mL [3]: -6.66%
inhibition at 3 µg/mL [4]: -6.7%

CC(=O)NC[C@H]1CN(c2ccc(N3CC4(COC4)C3)c(F)c2)C(=O)O1
IC50 [1]: 0.81 µg/mL (≈ 2.32 µM)
MIC [1]: 1.67 µg/mL (≈ 4.78 µM)
inhibition at 30 µg/mL [2]: 95.9%
inhibition at 10 µg/mL [3]: 100%
IC50 [5]: 0.79 µg/mL (≈ 2.26 µM)
MIC [5]: 1.83 µg/mL (≈ 5.24 µM)
inhibition at 3 µg/mL [4]: 99.1%

CC(=O)NC[C@H]1CN(c2ccc(C3=C[C@H]4CC[C@@H](C3)N4C(=O)OC(C)(C)C)c(F)c2)C(=O)O1
IC50 [1]: 5.82 µg/mL (≈ 12.7 µM)
MIC [1]: 23.1 µg/mL (≈ 50.4 µM)
inhibition at 30 µg/mL [2]: 96.3%
inhibition at 10 µg/mL [3]: 89.3%
IC50 [5]: 4.35 µg/mL (≈ 9.47 µM)
MIC [5]: 31.2 µg/mL (≈ 67.8 µM)
inhibition at 3 µg/mL [4]: 57.9%

N#Cc1ccc(NC(=S)NC[C@H]2CN(c3ccc(N4CC5(COC5)C4)c(F)c3)C(=O)O2)cc1
IC50 [1]: > 100 µg/mL
MIC [1]: > 100 µg/mL
inhibition at 30 µg/mL [2]: 88.1%
inhibition at 10 µg/mL [3]: 97.2%
inhibition at 3 µg/mL [4]: 97.4%

CC(C)(C)NC(=S)NC[C@H]1CN(c2ccc(N3CC4(COC4)C3)c(F)c2)C(=O)O1
IC50 [1]: > 100 µg/mL
MIC [1]: > 100 µg/mL
inhibition at 30 µg/mL [2]: 33.6%
inhibition at 10 µg/mL [3]: -3.89%
inhibition at 3 µg/mL [4]: -9.84%

O=C1OC2(CCN(Cc3ccccc3)C2)CN1c1ccc(N2CCOCC2)c(F)c1 (centres undefined)
IC50 [1]: > 100 µg/mL
MIC [1]: > 100 µg/mL
inhibition at 30 µg/mL [2]: -11.2%
inhibition at 10 µg/mL [3]: -9.32%
inhibition at 3 µg/mL [4]: -11.8%

O=C1O[C@@H](CNC(=O)C23CC4CC(CC(C4)C2)C3)CN1c1ccc(N2CC3(COC3)C2)c(F)c1
IC50 [1]: > 100 µg/mL
MIC [1]: > 100 µg/mL
inhibition at 30 µg/mL [2]: 62.6%
inhibition at 10 µg/mL [3]: 44.1%
inhibition at 3 µg/mL [4]: 11.8%

CC(=O)N1CCC2(C1)CN(c1ccc(N3CCOCC3)c(F)c1)C(=O)O2 (centres undefined)
IC50 [1]: > 100 µg/mL
MIC [1]: > 100 µg/mL
inhibition at 30 µg/mL [2]: 8.79%
inhibition at 10 µg/mL [3]: -3.02%
inhibition at 3 µg/mL [4]: -2.09%

O=C1O[C@@H](CNS(=O)(=O)c2cc(Cl)cc(Cl)c2)CN1c1ccc(N2CC3(COC3)C2)c(F)c1
IC50 [1]: > 100 µg/mL
MIC [1]: > 100 µg/mL
inhibition at 30 µg/mL [2]: 3.87%
inhibition at 10 µg/mL [3]: -2.28%
inhibition at 3 µg/mL [4]: 25.9%

O=C1O[C@@H](CNC(=S)Nc2ccccc2F)CN1c1ccc(N2CC3(COC3)C2)c(F)c1
IC50 [1]: 17.7 µg/mL (≈ 38.4 µM)
MIC [1]: 61.2 µg/mL (≈ 133 µM)
inhibition at 30 µg/mL [2]: 94.7%
inhibition at 10 µg/mL [3]: 92.9%
IC50 [5]: 13.1 µg/mL (≈ 28.4 µM)
MIC [5]: 44.5 µg/mL (≈ 96.5 µM)
inhibition at 3 µg/mL [4]: 42.1%

O=C(NC[C@H]1CN(c2ccc(N3CC4(COC4)C3)c(F)c2)C(=O)O1)Nc1ccc(Cl)cc1
IC50 [1]: > 100 µg/mL
MIC [1]: > 100 µg/mL
inhibition at 30 µg/mL [2]: 28.6%
inhibition at 10 µg/mL [3]: -3.58%
inhibition at 3 µg/mL [4]: -5.78%

CC(C)NC(=S)NC[C@H]1CN(c2ccc(N3CC4(COC4)C3)c(F)c2)C(=O)O1
IC50 [1]: > 100 µg/mL
MIC [1]: > 100 µg/mL
inhibition at 30 µg/mL [2]: 94.4%
inhibition at 10 µg/mL [3]: 74.6%
inhibition at 3 µg/mL [4]: 21.9%

CC1(C)[C@@]2(C)CC[C@]1(C(=O)NC[C@H]1CN(c3ccc(N4CC5(COC5)C4)c(F)c3)C(=O)O1)OC2=O
IC50 [1]: > 100 µg/mL
MIC [1]: > 100 µg/mL
inhibition at 30 µg/mL [2]: 8.27%
inhibition at 10 µg/mL [3]: 3.86%
inhibition at 3 µg/mL [4]: -35.3%

O=C1O[C@@H](CNS(=O)(=O)c2ccc(Cl)s2)CN1c1ccc(N2CC3(COC3)C2)c(F)c1
IC50 [1]: > 100 µg/mL
MIC [1]: > 100 µg/mL
inhibition at 30 µg/mL [2]: 91.7%
inhibition at 10 µg/mL [3]: 83.5%
inhibition at 3 µg/mL [4]: 34.8%

CC(=O)NC[C@H]1CN(c2ccc(N3CCOCC3)c(F)c2)C(=O)O1 [LINEZOLID]
IC50 [1]: 0.31 µg/mL (≈ 0.919 µM)
MIC [1]: 0.43 µg/mL (≈ 1.27 µM)
inhibition at 30 µg/mL [2]: 101%
inhibition at 10 µg/mL [3]: 101%
IC50 [5]: 0.029 µg/mL (≈ 0.086 µM)
MIC [5]: 0.42 µg/mL (≈ 1.24 µM)
inhibition at 3 µg/mL [4]: 101%
